“Also recorded” adds a separate entry of the source. Blank lines part the entries; values can stand above or below the compound they belong to.
How the values were obtained:
[1] = concentration X humans' ability to detect; cited from earlier work
[2] = trained expert panel; cited from earlier work
[3] = target: LePEDH (tomato 2-phenylethanol dehydrogenase, full-length cLET2M9) (Solanum lycopersicum, UniProt A6N6K7); assay: Alcohol dehydrogenase activity of E. coli expressed His-tagged LePEDH on phenylacetaldehyde and related substrates (Km); assay type: biochemical; conditions: His tag
Experimental: The 2-phenylethanol dehydrogenase coding region of the full-length cLET2M9 was cloned in vector pDEST17 with a His tag and transformed into E. coli BL21-AI cells for inducible expression. Alcohol dehydrogenase activities on phenylacetaldehyde and several related substrates were determined.

[4] = test system: 2-phenylethanol dehydrogenase (full-length cLET2M9); assay type: biochemical, tomato; conditions: GST-tagged enzyme, decrease in OD340
Experimental: A full-length 2-phenylethanol dehydrogenase cDNA was cloned by 5′ RACE from tomato fruit cDNA using primer 5′-[…]-3′ (SEQ ID NO: 3). Following sequence analysis the full-length cDNA was obtained by PCR. The coding region was cloned into vector pDEST15 containing a GST tag (Invitrogen) by recombination, and transformed into E. coli strain BL21-SI (Invitrogen) for inducible protein expression. Enzyme activity of crude E. coli extracts was determined by the method of Larroy et al. (2002) using phenylacetaldehyde, cinnamaldehyde or vanillin as a substrate.
The 2-phenylethanol dehydrogenase coding region of the full-length cLET2M9 and the related cLEG71F12 were cloned in vector pDEST15 with a GST tag and transformed into E. coli BL21-SI cells for inducible expression. The production of recombinant protein in E. coli was determined by Western blotting with an anti-GST antibody.

Sequence of LePEDH (tomato 2-phenylethanol dehydrogenase, full-length cLET2M9) (A6N6K7 entry or part of it): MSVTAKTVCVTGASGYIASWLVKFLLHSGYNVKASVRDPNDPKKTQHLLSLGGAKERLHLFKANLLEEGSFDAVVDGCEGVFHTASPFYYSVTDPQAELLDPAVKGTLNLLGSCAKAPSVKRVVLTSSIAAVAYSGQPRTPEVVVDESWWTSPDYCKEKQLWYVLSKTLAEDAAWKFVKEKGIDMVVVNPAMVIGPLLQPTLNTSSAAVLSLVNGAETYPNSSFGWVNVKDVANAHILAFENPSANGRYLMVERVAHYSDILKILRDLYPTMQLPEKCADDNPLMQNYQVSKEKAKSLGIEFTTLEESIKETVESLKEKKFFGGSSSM

Structure (SMILES): C=CC(=O)CC [1-Penten-3-one]
Log odor units [1]: 2.7
Odor Characteristics [2]: fruity; also recorded: floral/green

Structure (SMILES): O=[N+]([O-])CCc1ccccc1 [1-nitro-2-Phenylethane]
Log odor units [1]: 0.9
Odor Characteristics [2]: musty, earthy

Structure (SMILES): CC(C)Cc1nccs1 [2-Isobutylthiazole]
Log odor units [1]: 1.0
Odor Characteristics [2]: Tomato vine

Structure (SMILES): OCCc1ccccc1 [2-Phenylethanol]
Log odor units [1]: 0.3
Odor Characteristics [2]: Nutty

Structure (SMILES): CC(C)CCO [3-Methylbutanol]
Log odor units [1]: 0.2
Odor Characteristics [2]: earthy, musty

Structure (SMILES): CC(=O)CCC=C(C)C [6-Methyl-5-hepten-2-one]
Log odor units [1]: 0.4
Odor Characteristics [2]: fruity, floral

Structure (SMILES): O=Cc1ccccc1 [Benzaldehyde]
Alcohol dehydrogenase activity level as substrate [3]: Lower activity levels

Structure (SMILES): O=C/C=C/c1ccccc1 [Cinnamaldehyde]
Alcohol dehydrogenase activity level as substrate [4]: Lower activity levels
Alcohol dehydrogenase activity level as substrate [3]: Lower activity levels

Structure (SMILES): CCCCCC=O [Hexanal]
Log odor units [1]: 2.8
Odor Characteristics [2]: green/grassy

Structure (SMILES): COC(=O)c1ccccc1O [Methyl salicylate]
Log odor units [1]: 0.08
Odor Characteristics [2]: wintergreen

Structure (SMILES): O=CCc1ccccc1 [Phenylacetaldehyde]
Alcohol dehydrogenase activity level as substrate [4]: highest level of activity; also recorded: Highest activity levels
Alcohol dehydrogenase activity level as substrate [3]: highest level of activity
Log odor units [1]: 0.6
Odor Characteristics [2]: floral/alcohol

Structure (SMILES): CC/C=C\CC=O [cis-3-Hexenal]
Log odor units [1]: 3.7
Odor Characteristics [2]: Tomato/green

Alcohol dehydrogenase activity level as substrate [3]: no detectable activity
Structure (SMILES): O=Cc1ccccc1O [salicylaldehyde]

Structure (SMILES): CCCC/C=C/C=O [trans-2-Heptenal]
Log odor units [1]: 0.7
Odor Characteristics [2]: Green

Structure (SMILES): CCC/C=C/C=O [trans-2-Hexenal]
Log odor units [1]: 1.2
Odor Characteristics [2]: Green

Structure (SMILES): COc1cc(C=O)ccc1O [vanillin]
Alcohol dehydrogenase activity level as substrate [4]: negligible activity

Structure (SMILES): C/C=C/C(=O)C1=C(C)C=CCC1(C)C [β-Damascenone]
Log odor units [1]: 2.7
Odor Characteristics [2]: Fruity

Structure (SMILES): CC(=O)/C=C/C1=C(C)CCCC1(C)C [β-ionone]
Log odor units [1]: 2.8
Odor Characteristics [2]: fruity/floral

— patent US8709811B2, “Materials and methods for synthesis of a flavor and aroma volatile in plants” (University of Florida Research Foundation, Inc., priority 2003, dated 2014)
